Test results published in PMC2801429 (Journal of Alzheimer's disease : JAD, 2009).
“Also recorded” adds a separate entry of the source. Marks after values point to notes of the source that are not given here.

What was measured:
[1] = Brain deposition of GSPE phenolic constituents; type: in vivo, Sprague Dawley rats; conditions: for Detection in brain tissue: rats; for Concentration in brain tissue: rats administered GSPE for 10 days (dose escalation, last dose 150 mg/kg BW), perfused brain, mean ± SEM
[2] = acute and single dose studies; cited from earlier work
[3] = Plasma pharmacokinetics of GSPE phenolic constituents after intragastric gavage; type: in vivo, Sprague Dawley rats; conditions: for Increase of total (free plus methylated) C AUC0-8h: rats; for Detection in rat plasma: acute oral administration of GSPE; for AUC(0-8h) / Cmax / Tmax: rat plasma, mean ± SEM
[4] = humans; four week multiple dose administration; cited from earlier work
[5] = 10 day repeated GSPE pretreatment prior to pharmacokinetic dose
[6] = single acute GSPE dose (50, 100 or 150 mg/kg BW)
[7] = single intragastric gavage 50 mg GSE/kg BW
[8] = single intragastric gavage 100 mg GSE/kg BW
[9] = single intragastric gavage 150 mg GSE/kg BW

SMILES	Detection in brain tissue [1, 5]	Concentration in brain tissue [1] [pg/g]	Detection in brain tissue [1, 6]	Bioavailability [2]	Increase of total (free plus methylated) C AUC0-8h ([3]; 50 to 100 mg/kg BW dose) [%]	Increase of total (free plus methylated) C AUC0-8h ([3]; 100 to 150 mg/kg BW dose) [%]	Detection in rat plasma [3]	AUC(0-8h) [3, 7]	Cmax [3, 7]	Tmax [3, 7] [h]	AUC(0-8h) [3, 8]	Cmax [3, 8]	Tmax [3, 8] [h]	AUC(0-8h) [3, 9]	Cmax [3, 9]	Tmax [3, 9] [h]	Improvement of bioavailability by multiple dosing [4] [%]
Oc1cc(O)c2c(c1)OC(c1ccc(O)c(O)c1)C(O)C2 (single isomer, unassigned; (+)) [C, (+)-catechin]	detectable levels	576.7 ± 227.7	not detectable	< 2 % of oral dose	78	106	detected	398.5 ± 80.5 ^a ng/mL*h	207.5 ± 34.8 ^a ng/mL	1.7 ± 0.7	606.1 ± 64.6 ^a ng/mL*h	289.9 ± 37.2 ^a ng/mL	1.8 ± 0.2	1168.2 ± 143.6 ^b ng/mL*h	442.4 ± 49.1 ^b ng/mL	1.1 ± 0.2	–
COc1cc([C@H]2Oc3cc(O)cc(O)c3C[C@@H]2O)ccc1O [3′-OMeC, 3′-O-methylcatechin]	Trace but not quantifiable levels	–	–	–	–	–	–	44.1 ± 4.9 ^a ng/mL*h	22.7 ± 3.5 ^a ng/mL	1.0 ± 0.0	184.8 ± 45.3 ^a ng/mL*h	75.5 ± 14.0 ^b ng/mL	1.4 ± 0.2	465.1 ± 45.1 ^b ng/mL*h	129.3 ± 13.2 ^c ng/mL	1.3 ± 0.2	–
COc1cc([C@H]2Oc3cc(O)cc(O)c3C[C@H]2O)ccc1O [3′-OMeEC, 3′-O-methylepicatechin]	Trace but not quantifiable levels	–	–	–	–	–	–	60.5 ± 4.1 ^a ng/mL*h	36.8 ± 5.8 ^a ng/mL	1.0 ± 0.0	266.6 ± 61.4 ^b ng/mL*h	105.9 ± 22.0 ^a ng/mL	1.5 ± 0.2	639.5 ± 67.0 ^c ng/mL*h	167.7 ± 19.6 ^a ng/mL	1.3 ± 0.2	–
Oc1cc(O)c2c(c1)O[C@H](c1ccc(O)c(O)c1)[C@H](O)C2 [EC, (−)-epicatechin]	detectable levels	290.7 ± 45.9	not detectable	< 2 % of oral dose	–	–	detected	–	–	–	–	–	–	–	–	–	–
O=C(O[C@@H]1Cc2c(O)cc(O)cc2O[C@@H]1c1cc(O)c(O)c(O)c1)c1cc(O)c(O)c(O)c1 [EGCG, epigallocatechin-gallate]	–	–	–	–	–	–	–	–	–	–	–	–	–	–	–	–	> 60
O=C(O)c1cc(O)c(O)c(O)c1 [GA, Gallic acid]	detectable levels; also recorded: trace levels	–	No detectable amounts	< 2 % of oral dose	–	–	–	–	–	–	–	–	–	–	–	–	–
